Measurements from paper PMC6388407 (Toxicological sciences : an official journal of the Society …, 2018).
Like-named read-outs stand apart in the source and are kept apart here.

Columns and labels:
[1] = MTS cell proliferation assay; type: cell-based, mouse; settings: mouse
[2] = test system: L5178Y mouse lymphoma cells; experiment: MTS cell proliferation assay; type: cell-based; settings: 4-h treatment; for reduction in cell viability, MTS assay: at the lowest concentrations tested; for IC20: read-out: IC20, MTS assay, L5178Y cells
[3] = CellTiter-Blue cell viability assay; type: cell-based, mouse; settings: mouse, L5178Y mouse lymphoma cells
[4] = Cellular ATP level assay; type: cell-based, mouse; settings: mouse, L5178Y mouse lymphoma cells
[5] = test system: thymidine kinase (Tk) gene of the L5178Y/Tk+/− −3.7.2C mouse lymphoma cell line; experiment: Mouse lymphoma assay; type: cell-based; settings: for BMDL10, MLA without S9: lower limit of the 10% BMD, Hill model of PROAST, MF data; for Ranking, MLA without S9: potency ranking by BMDL10, 1 = most potent
[6] = test system: thymidine kinase (Tk) gene of the L5178Y/Tk+/− −3.7.2C mouse lymphoma cell line; experiment: Mouse lymphoma assay; type: cell-based; settings: for BMDL10, MLA with S9: lower limit of the 10% BMD, Hill model of PROAST, MF data; for Ranking, MLA with S9: potency ranking by BMDL10, 1 = most potent
[7] = test system: L5178Y mouse lymphoma cells; experiment: Alkaline Comet assay; type: cell-based; settings: for lowest concentration that induced significant DNA damage / highest percentage of DNA in tail: 4-h treatment; for lowest concentration that induced significant DNA damage: absence of S9; for highest percentage of DNA in tail: absence of S9, background approximately 5%; for BMDL10, Comet assay: lower limit of the 10% BMD, Hill model of PROAST, %DNA in tail data, without S9
[8] = test system: Tk mutants of L5178Y mouse lymphoma cells; experiment: LOH evaluation of Tk mutants from the MLA; type: cell-based; settings: with vs without S9, p < .05
[9] = test system: Chinese hamster cells; settings: ref Mitchell et al., 1991, cited from earlier work
[10] = test system: Chinese hamster ovary AS52 cells; settings: CHO AS52 cells; ref DeGraff et al., 1992; cited from earlier work
[11] = test system: L5178Y mouse lymphoma cells; experiment: CellTiter-Blue cell viability assay; type: cell-based; settings: read-out: IC20, Blue assay; L5178Y cells, 4-h treatment
[12] = test system: L5178Y mouse lymphoma cells; experiment: Cellular ATP level assay; type: cell-based; settings: read-out: IC20, ATP assay; L5178Y cells, 4-h treatment
[13] = test system: thymidine kinase (Tk) gene of the L5178Y/Tk+/− −3.7.2C mouse lymphoma cell line; settings: ref Guo et al., 2013, cited from earlier work
[14] = test system: thymidine kinase (Tk) gene of the L5178Y/Tk+/− −3.7.2C mouse lymphoma cell line; settings: with S9, at concentration that produced 10%–20% RTG; ref Guo et al., 2013; cited from earlier work
[15] = test system: TK6 human lymphoblastoid cells; settings: ref Guo et al., 2013; cited from earlier work
[16] = absence of S9, at the cytotoxicity limit for the MLA
[17] = without S9, at concentration that produced 10%–20% RTG

| Compound | reduction in cell viability, MTS assay [2] | BMDL10, MLA without S9 [5] | Ranking, MLA without S9 [5] | BMDL10, MLA with S9 [6] | Ranking, MLA with S9 [6] | lowest concentration that induced significant DNA damage [7] | highest percentage of DNA in tail [7] | BMDL10, Comet assay [7] | effect of metabolic activation on mutational spectra (LOH) [8] | IC20 [2] | IC20 [11] | IC20 [12] | mutant frequency (MF) [5, 16] | other results |
| --- | --- | --- | --- | --- | --- | --- | --- | --- | --- | --- | --- | --- | --- | --- |
| CC1(C)CC(O)CC(C)(C)N1[O] [4-hydroxy-TEMPO] | approximately 50% | 1.300 | 4 | 1.024 | 4 | 4 mM | 21% | 1.612 | significantly altered | – | – | – | – | IC20 at 4 h [1]: 356 µM; IC20 at 4 h [3]: 1780 µM; IC20 at 4 h [4]: 6390 µM; radiation protection factor ([9]; 10 mM for 10 min prior to X-irradiation): 1.3; radiation protection factor ([9]; 100 mM for 10 min prior to X-irradiation): 2.5; mutagenicity and toxicity [10]: not mutagenic or toxic |
| COC1CC(C)(C)N([O])C(C)(C)C1 [4-methoxy-TEMPO] | approximately 50% | 0.756 | 2 | 0.770 | 3 | 6 mM | 13% | 3.358 | – | 30 µM | 2580 µM | 3870 µM | 537 × 10^−6 | mutant frequency (MF) [5, 17]: 508 per million cells; mutant frequency (MF) ([6]; with S9, at concentration that produced 10%–20% RTG): 961 per million cells |
| CC1(C)CC(=O)CC(C)(C)N1[O] [4-oxo-TEMPO] | – | 0.661 | 1 | 0.058 | 1 | 3 mM | 14% | 1.114 | – | 1550 µM | 1950 µM | 1730 µM | 584 × 10^−6 | – |
| CC1(C)CCCC(C)(C)N1[O] [TEMPO, 2,2,6,6-tetramethylphiperidine-1-oxyl] | approximately 50% | 0.981 | 3 | 0.257 | 2 | 2 mM | 28% | 0.454 | significantly altered | 11 µM | 4970 µM | 1920 µM | – | mutant frequency (MF) [13, 16]: 208 × 10^−6; MLA result ([13]; earlier study, with and without 1% S9): mutagenic; mutant frequency (MF) [13, 17]: 208 per million cells; mutant frequency (MF) [14]: 502 per million cells; micronucleus induction [15]: induced micronuclei |
